Reference: patent US20220340597A1, “HEXAHYDRO-1H-PYRAZINO[1,2-A]PYRAZINE COMPOUNDS FOR THE TREATMENT OF AUTOIMMUNE DISEASE” (Hoffmann-La Roche Inc., priority 2019, published 2022)

Target: T1, human TLR9 (Homo sapiens, UniProt Q9NR96)
T1 construct: host or cells: HEK293 (HEK-Blue hTLR9)
T1 sequence (Q9NR96 26-1032): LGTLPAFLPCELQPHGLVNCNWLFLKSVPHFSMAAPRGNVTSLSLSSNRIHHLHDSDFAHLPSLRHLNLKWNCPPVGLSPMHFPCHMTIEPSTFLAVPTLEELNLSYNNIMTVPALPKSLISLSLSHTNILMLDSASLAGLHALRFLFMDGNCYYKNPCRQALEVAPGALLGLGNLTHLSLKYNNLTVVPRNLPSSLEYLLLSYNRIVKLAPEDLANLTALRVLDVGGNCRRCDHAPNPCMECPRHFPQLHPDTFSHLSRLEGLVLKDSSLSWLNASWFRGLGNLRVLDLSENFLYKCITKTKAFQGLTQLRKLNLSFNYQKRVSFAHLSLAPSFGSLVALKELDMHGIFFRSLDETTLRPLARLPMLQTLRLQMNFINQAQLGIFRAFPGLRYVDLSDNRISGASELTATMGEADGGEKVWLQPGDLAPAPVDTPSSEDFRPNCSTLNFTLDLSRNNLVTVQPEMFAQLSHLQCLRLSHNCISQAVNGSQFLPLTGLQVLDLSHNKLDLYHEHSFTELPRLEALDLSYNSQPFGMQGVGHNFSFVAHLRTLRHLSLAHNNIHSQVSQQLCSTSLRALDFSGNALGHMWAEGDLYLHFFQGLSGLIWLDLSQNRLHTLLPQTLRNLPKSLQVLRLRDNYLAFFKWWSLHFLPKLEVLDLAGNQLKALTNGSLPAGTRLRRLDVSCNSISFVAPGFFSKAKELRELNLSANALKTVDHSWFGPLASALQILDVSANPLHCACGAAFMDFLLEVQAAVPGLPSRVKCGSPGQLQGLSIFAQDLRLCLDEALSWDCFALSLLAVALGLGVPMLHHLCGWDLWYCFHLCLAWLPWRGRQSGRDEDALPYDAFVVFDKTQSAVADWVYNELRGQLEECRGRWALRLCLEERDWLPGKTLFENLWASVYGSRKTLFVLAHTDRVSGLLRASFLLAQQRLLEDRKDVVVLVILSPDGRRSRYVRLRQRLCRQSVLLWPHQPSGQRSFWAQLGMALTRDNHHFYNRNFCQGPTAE
Test: HEK293-Blue-hTLR-9 cells assay
Type: cell-based
Settings: HEK293-Blue-hTLR9 cells, ODN2006 stimulation, 20 hrs, SEAP reporter; read-out: HEK/hTLR9 IC50

Row | IC50 [nM] | Structure (SMILES)
1 | 58 | C[C@@H]1CN(c2ccc(C#N)c3ncccc23)C[C@@H]2CN(Cc3ccc4c(c3)CNCC4)CCN21 (relative stereo) [Example 1]
2 | 110 | C[C@@H]1CN(c2ccc(C#N)c3ncccc23)C[C@@H]2CN(Cc3ccnc(N4CCNCC4)c3)CCN21 (relative stereo) [Example 3]
3 | < 32 | [2H]c1ccc2c(N3C[C@@H]4CN(Cc5ccc(N6CC7(CN(C)C7)C6)nc5C)CCN4[C@H](C)C3)ccc(C#N)c2n1 [Example 80, 5-[(4R,9aS)-4-methyl-8-[[2-methyl-6-(6-methyl-2,6-diazaspiro[3.3]heptan-2-yl)-3-pyridyl]methyl]-3,4,6,7,9,9a-hexahydro-1H-pyrazino[1,2-a]pyrazin-2-yl]-2-deuterio-quinoline-8-carbonitrile]
4 | < 32 | [2H]c1ccc2c(N3C[C@@H]4CN(Cc5ccc(N6CC[C@@](C)(N)C6)nc5C)CCN4[C@H](C)C3)ccc(C#N)c2n1 [Example 81, 5-[(4R,9aS)-8-[[6-[(3R)-3-amino-3-methyl-pyrrolidin-1-yl]-2-methyl-3-pyridyl]methyl]-4-methyl-3,4,6,7,9,9a-hexahydro-1H-pyrazino[1,2-a]pyrazin-2-yl]-2-deuterio-quinoline-8-carbonitrile]
5 | 41 | [2H]c1ccc2c(N3C[C@@H]4CN(Cc5ccc(N[C@H]6CNC[C@H]6F)nc5C)CCN4[C@H](C)C3)ccc(C#N)c2n1 [Example 82, 5-[(4R,9aS)-8-[[6-[[(3S,4R)-4-fluoropyrrolidin-3-yl]amino]-2-methyl-3-pyridyl]methyl]-4-methyl-3,4,6,7,9,9a-hexahydro-JH-pyrazino[1,2-a]pyrazin-2-yl]-2-deuterio-quinoline-8-carbonitrile]
6 | 51 | [2H]c1ccc2c(N3C[C@@H]4CN(Cc5ccc(N6CC7CNCC(C6)O7)nc5C)CCN4[C@H](C)C3)ccc(C#N)c2n1 [Example 83, 5-[(4R,9aS)-4-methyl-8-[[2-methyl-6-(9-oxa-3,7-diazabicyclo[3.3.1]nonan-3-yl)-3-pyridyl]methyl]-3,4,6,7,9,9a-hexahydro-1H-pyrazino[1,2-a]pyrazin-2-yl]-2-deuterio-quinoline-8-carbonitrile]
7 | < 32 | [2H]c1ccc2c(N3C[C@@H]4CN(CCc5ccc(N6CC[C@@](C)(N)C6)nc5)CCN4[C@H](C)C3)ccc(C#N)c2n1 [Example 84, 5-[(4R,9aS)-8-[2-[6-[(3R)-3-amino-3-methyl-pyrrolidin-1-yl]-3-pyridyl]ethyl]-4-methyl-3,4,6,7,9,9a-hexahydro-1H-pyrazino[1,2-a]pyrazin-2-yl]-2-deuterio-quinoline-8-carbonitrile]
8 | 97 | Cc1nc(N2CCNC[C@@H]2C)ccc1CN1CCN2[C@@H](C1)CN(c1ccc(C#N)c3ncccc13)C[C@H]2C [Example 85, 5-[(4R,9aS)-4-methyl-8-[[2-methyl-6-[(2S)-2-methylpiperazin-1-yl]-3-pyridyl]methyl]-3,4,6,7,9,9a-hexahydro-1H-pyrazino[1,2-a]pyrazin-2-yl]quinoline-8-carbonitrile]
9 | 62 | Cc1nc(N2CCN[C@H](C)C2)ccc1CN1CCN2[C@@H](C1)CN(c1ccc(C#N)c3ncccc13)C[C@H]2C [Example 86, 5-[(4R,9aS)-4-methyl-8-[[2-methyl-6-[(3R)-3-methylpiperazin-1-yl]-3-pyridyl]methyl]-3,4,6,7,9,9a-hexahydro-1H-pyrazino[1,2-a]pyrazin-2-yl]quinoline-8-carbonitrile]
10 | 52 | [2H]c1ccc2c(N3C[C@@H]4CN(Cc5cnc(N6CCNCC6)cc5C)CCN4[C@H](C)C3)ccc(C#N)c2n1 [Example 87, 5-[(4R,9aS)-4-methyl-8-[(4-methyl-6-piperazin-1-yl-3-pyridyl)methyl]-3,4,6,7,9,9a-hexahydro-1H-pyrazino[1,2-a]pyrazin-2-yl]-2-deuterio-quinoline-8-carbonitrile]
11 | 47 | [2H]c1ccc2c(N3C[C@@H]4CN(Cc5nc(N6CCNCC6)ccc5C)CCN4[C@H](C)C3)ccc(C#N)c2n1 [Example 88, 5-[(4R,9aS)-4-methyl-8-[(3-methyl-6-piperazin-1-yl-2-pyridyl)methyl]-3,4,6,7,9,9a-hexahydro-1H-pyrazino[1,2-a]pyrazin-2-yl]-2-deuterio-quinoline-8-carbonitrile]
12 | 47 | [2H]c1ccc2c(N3C[C@@H]4CN(CCc5ccnc(N6C[C@@H](N)[C@@H](F)C6)c5)CCN4[C@H](C)C3)ccc(C#N)c2n1 [Example 89, 5-[(4R,9aS)-8-[2-[2-[(3R,4S)-3-amino-4-fluoro-pyrrolidin-1-yl]-4-pyridyl]ethyl]-4-methyl-3,4,6,7,9,9a-hexahydro-1H-pyrazino[1,2-a]pyrazin-2-yl]-2-deuterio-quinoline-8-carbonitrile]
13 | 34 | [2H]c1ccc2c(N3C[C@@H]4CN(Cc5ccc(N6C[C@@H]7C[C@H]6CN7)nc5C)CCN4[C@H](C)C3)ccc(C#N)c2n1 [Example 92, 5-[(4R,9aS)-8-[[6-[(1S,4S)-2,5-diazabicyclo[2.2.1]heptan-2-yl]-2-methyl-3-pyridyl]methyl]-4-methyl-3,4,6,7,9,9a-hexahydro-1H-pyrazino[1,2-a]pyrazin-2-yl]-2-deuterio-quinoline-8-carbonitrile]
14 | 186 | Cc1cc(N2CCNCC2)cnc1N1CCN2[C@@H](C1)CN(c1cc(=O)n(C)c3ncccc13)C[C@H]2C [Example 93, 4-[(4R,9aR)-4-methyl-8-(3-methyl-5-piperazin-1-yl-2-pyridyl)-3,4,6,7,9,9a-hexahydro-1H-pyrazino[1,2-a]pyrazin-2-yl]-1-methyl-1,8-naphthyridin-2-one]
15 | 99 | [2H]c1ccc2c(N3C[C@@H]4CN(Cc5cnc(N6C[C@@H]7C[C@H]6CN7)cc5C)CCN4[C@H](C)C3)ccc(C#N)c2n1 [Example 94, 5-[(4R,9aS)-8-[[6-[(1S,4S)-2,5-diazabicyclo[2.2.1]heptan-2-yl]-4-methyl-3-pyridyl]methyl]-4-methyl-3,4,6,7,9,9a-hexahydro-1H-pyrazino[1,2-a]pyrazin-2-yl]-2-deuterio-quinoline-8-carbonitrile]
16 | 142 | [2H]c1ccc2c(N3C[C@@H]4CN(c5ncc(N6C[C@@H]7C[C@H]6CN7)cc5C)CCN4[C@H](C)C3)ccc(C#N)c2n1 [Example 95, 5-[(4R,9aR)-8-[5-[(1S,4S)-2,5-diazabicyclo[2.2.1]heptan-2-yl]-3-methyl-2-pyridyl]-4-methyl-3,4,6,7,9,9a-hexahydro-1H-pyrazino[1,2-a]pyrazin-2-yl]-2-deuterio-quinoline-8-carbonitrile]
17 | 189 | [2H]c1ccc2c(N3C[C@@H]4CN(c5ncc(N6C[C@@H](N)[C@@H](OC)C6)cc5C)CCN4[C@H](C)C3)ccc(C#N)c2n1 [Example 96, 5-[(4R,9aR)-8-[5-[(3R,4S)-3-amino-4-methoxy-pyrrolidin-1-yl]-3-methyl-2-pyridyl]-4-methyl-3,4,6,7,9,9a-hexahydro-1H-pyrazino[1,2-a]pyrazin-2-yl]-2-deuterio-quinoline-8-carbonitrile]
18 | 140 | [2H]c1ccc2c(N3C[C@@H]4CN(c5ncc(N6CC[C@@](C)(N)C6)cc5C)CCN4[C@H](C)C3)ccc(C#N)c2n1 [Example 97, 5-[(4R,9aR)-8-[5-[(3R)-3-amino-3-methyl-pyrrolidin-1-yl]-3-methyl-2-pyridyl]-4-methyl-3,4,6,7,9,9a-hexahydro-1H-pyrazino[1,2-a]pyrazin-2-yl]-2-deuterio-quinoline-8-carbonitrile]

Row | Structure (SMILES) | IC50 [nM]
19 | [2H]c1ccc2c(N3C[C@@H]4CN(Cc5ccc(N6CC7CC(C6)N7)nc5C)CCN4[C@H](C)C3)ccc(C#N)c2n1 [Example 90, 5-[(4R,9aS)-8-[[6-(3,6-diazabicyclo[3.1.1]heptan-3-yl)-2-methyl-3-pyridyl]methyl]-4-methyl-3,4,6,7,9,9a-hexahydro-1H-pyrazino[1,2-a]pyrazin-2-yl]-2-deuterio-quinoline-8-carbonitrile] | 33
20 | [2H]c1ccc2c(N3C[C@@H]4CN(Cc5ccc(N6CC7CCC(C6)N7)nc5C)CCN4[C@H](C)C3)ccc(C#N)c2n1 [Example 91, 5-[(4R,9aS)-8-[[6-(3,8-diazabicyclo[3.2.1]octan-3-yl)-2-methyl-3-pyridyl]methyl]-4-methyl-3,4,6,7,9,9a-hexahydro-1H-pyrazino[1,2-a]pyrazin-2-yl]-2-deuterio-quinoline-8-carbonitrile] | 45
